Reference: US20020156236A1, “Binding sites for phosphotyrosine binding domains” (priority 1995, published 2002)
Where two headings read alike, the source gives them in different places. Where a SMILES comes first, the peptide text is derived from it.

Experiments:
[1] = biological target: T1, PTB domain/c-erbB2 binding (GST-PTB domain of SHC; c-erbB2 from SKBR3 lysate) (Homo sapiens, UniProt P29353); experiment: biochemical; conditions: for block of PTB/c-erbB2 interaction at one peptide concentration, in words: FIG. 2C, 300 nM peptides (legend says 500 nM)
T1 construct: GST-PTB domain fusion proteins were expressed from recombinant baculovirus in sf9 cells; made in house; host or cells: Sf9 cells (recombinant baculovirus) for GST-PTB; c-erbB2 endogenous in SKBR3 cell lysate
T1 sequence (P29353 156-341): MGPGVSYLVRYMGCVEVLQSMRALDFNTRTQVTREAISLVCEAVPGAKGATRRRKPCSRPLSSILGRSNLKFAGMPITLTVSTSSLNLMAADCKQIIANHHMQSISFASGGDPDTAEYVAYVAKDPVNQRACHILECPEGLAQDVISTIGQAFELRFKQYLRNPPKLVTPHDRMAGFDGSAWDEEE

[2] = biological target: T2, GST-PTB domain fusion protein (Homo sapiens, UniProt P29353); experiment: Direct binding of biotinylated peptides to PTB domain (streptavidin-coupled alkaline phosphatase detection); conditions: 500 nM biotinylated peptide, FIG. 3
T2 construct: 100 ng of GST-PTB domain or GST-SH2 domain fusion protein were incubated; made in house; host or cells: Sf9 cells (recombinant baculovirus)
T2 sequence (P29353 156-339 limits assumed): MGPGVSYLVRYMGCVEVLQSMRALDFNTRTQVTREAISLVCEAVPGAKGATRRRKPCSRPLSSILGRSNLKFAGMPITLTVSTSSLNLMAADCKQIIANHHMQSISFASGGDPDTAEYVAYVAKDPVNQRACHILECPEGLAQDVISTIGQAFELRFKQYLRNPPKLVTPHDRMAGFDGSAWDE
Method: (§1) The PTB domain was immunoprecipitated and the washed pellet assayed for the presence of bound peptide with streptavidin-coupled alkaline phosphatase. […] See, Kavanaugh and Williams, supra.
Peptides were biotinylated during synthesis and HPLC purified. 100 ng of GST-PTB domain or GST-SH2 domain fusion protein were incubated in 1×hybridization buffer with 500 nM biotinylated phosphopeptide for 1 hour at 4° C., immunoprecipitated as described in Example 2, above, washed once, and the pellets incubated with 0.25 units of streptavidin-alkaline phosphatase for 5 minutes at 4° C. The pellets were washed twice more, incubated for 3 minutes at room temperature with 1 mg/ml p-nitrophenylphosphate in 100 mM glycine, pH 10.1, 1 mM ZnCl2 and 1 mM MgCl2. The absorbance was measured at 405 nm.

[3] = biological target: T3, SH2 domain of SHC (GST-SH2 domain fusion protein) (Homo sapiens, UniProt P29353); experiment: Direct binding of biotinylated peptides to SH2 domain (streptavidin-coupled alkaline phosphatase detection); conditions: 500 nM biotinylated peptide, FIG. 3
T3 construct: 100 ng of GST-PTB domain or GST-SH2 domain fusion protein were incubated
T3 sequence (P29353 488-579 limits assumed): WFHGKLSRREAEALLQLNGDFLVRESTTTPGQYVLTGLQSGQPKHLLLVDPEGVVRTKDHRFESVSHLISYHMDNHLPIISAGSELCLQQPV

[4] = biological target: T4, SHC PTB domain / pp145 derived from activated B cells (Homo sapiens, UniProt P29353); experiment: Blocking of in vitro association of SHC PTB domain with pp145; type: binding
T4 sequence (P29353 156-339 limits assumed): T2 sequence (P29353 156-339 limits assumed)
Excerpt: as §1

[5] = approximate IC50, inhibition of PTB domain/c-erbB2 binding

Compound: CC(C)C[C@H](NC(=O)[C@H](CC(N)=O)NC(=O)[C@H](CC(=O)O)NC(=O)[C@H](Cc1ccccc1)NC(=O)[C@H](C)NC(=O)[C@@H]1CCCN1C(=O)[C@H](CO)NC(=O)[C@H](Cc1ccccc1)NC(=O)[C@H](C)NC(=O)[C@@H]1CCCN1)C(=O)N[C@@H](Cc1ccc(OP(=O)(O)O)cc1)C(=O)N[C@@H](Cc1ccc(OP(=O)(O)O)cc1)C(=O)N[C@@H](Cc1c[nH]c2ccccc12)C(=O)N[C@@H](CC(=O)O)C(=O)N[C@@H](CCC(N)=O)C(=O)N[C@@H](CC(N)=O)C(=O)N[C@@H](CO)C(=O)N[C@@H](CO)C(=O)N[C@@H](CCC(=O)O)C(=O)N[C@@H](CCC(N)=O)C(=O)NCC(=O)O [PAFSPAFDNL (pY) (pY) WDQNSSEQG, PAFSPAFDNL(pY)(pY)WDQNSSEQG] (HELM PEPTIDE1{P.A.F.S.P.A.F.D.N.L.[O=C([C@H](Cc1ccc(OP(=O)(O)O)cc1)N[*:1])[*:2]].[O=C([C@H](Cc1ccc(OP(=O)(O)O)cc1)N[*:1])[*:2]].W.D.Q.N.S.S.E.Q.G}$$$$V2.0)
- IC50 ([1]; Apparent Inhibition (IC50)): 50 nM
- block of PTB/c-erbB2 interaction at one peptide concentration, in words [1]: completely block
- IC50 [1, 5]: ~50 nM
- ability to block the PTB domain/c-erbB2 interaction after dephosphorylation ([1]; peptide dephosphorylated with tyrosine-specific phosphatases): unable to block
- peptide concentration at which substantial inhibition is shown ([1]; varying peptide concentrations, FIG. 2B lower blot): 50 nM
- direct binding to PTB domain, in words [2]: able to bind directly
- binding to SH2 domain, in words [3]: inability of the SH2 domain of SHC to bind
- blocking of association of SHC PTB domain with pp145 [4]: blocks association

Compound: CC(C)C[C@H](NC(=O)[C@H](CCC(N)=O)NC(=O)[C@H](CC(N)=O)NC(=O)[C@H](CCC(N)=O)NC(=O)[C@H](CC(=O)O)NC(=O)[C@H](Cc1c[nH]c2ccccc12)NC(=O)[C@H](CO)NC(=O)[C@@H](N)CC(=O)O)C(=O)N[C@@H](Cc1ccccc1)C(=O)N[C@@H](CO)C(=O)N[C@@H](Cc1ccc(OP(=O)(O)O)cc1)C(=O)N[C@@H](Cc1ccc(OP(=O)(O)O)cc1)C(=O)N[C@@H](CO)C(=O)N[C@@H](Cc1ccccc1)C(=O)N[C@@H](C)C(=O)N1CCC[C@H]1C(=O)N[C@@H](CCC(=O)O)C(=O)NCC(=O)N1CCC[C@H]1C(=O)N[C@@H](C)C(=O)N[C@@H](CC(N)=O)C(=O)O [DSWDQNQLFS (pY) (pY) SFAPEGPAN] (HELM PEPTIDE1{D.S.W.D.Q.N.Q.L.F.S.[O=C([C@H](Cc1ccc(OP(=O)(O)O)cc1)N[*:1])[*:2]].[O=C([C@H](Cc1ccc(OP(=O)(O)O)cc1)N[*:1])[*:2]].S.F.A.P.E.G.P.A.N}$$$$V2.0)
- IC50 ([1]; Affinity (IC50)): > 30000 nM

Compound: CC(C)C[C@H](NC(=O)[C@H](CC(N)=O)NC(=O)[C@H](CC(=O)O)NC(=O)[C@H](Cc1ccccc1)NC(=O)[C@H](C)N)C(=O)N[C@@H](Cc1ccc(O)cc1)C(=O)N[C@@H](Cc1ccc(OP(=O)(O)O)cc1)C(=O)N[C@@H](Cc1c[nH]c2ccccc12)C(=O)N[C@@H](CC(=O)O)C(=O)N[C@@H](CCC(N)=O)C(=O)N[C@@H](CC(N)=O)C(=O)N[C@@H](CO)C(=O)O [AFDNLY (pY) WDQNS, AFDNLY(pY)WDQNS] (HELM PEPTIDE1{A.F.D.N.L.Y.[O=C([C@H](Cc1ccc(OP(=O)(O)O)cc1)N[*:1])[*:2]].W.D.Q.N.S}$$$$V2.0; N-terminus and C-terminus assumed)
- IC50 compared with that of AFDNL(pY)(pY)WDQNS, in words [1]: approximately equal
- IC50 ([1]; Affinity (IC50)): 30 nM
- IC50 ([1]; Apparent Inhibition (IC50)): 30 nM
- block of PTB/c-erbB2 interaction at one peptide concentration, in words [1]: completely block
- IC50 [1, 5]: ~30 nM

Compound: NC(Cc1ccccc1)C(=O)NC(Cc1ccccc1)C(=O)O (centres unmarked)
- IC50 ([1]; Table 3, ability to block PTB domain/c-erbB2 binding, read-out: Affinity (IC50)): > 30000 nM

Compound: CC(C)C[C@H](NC(=O)[C@H](Cc1ccc(OP(=O)(O)O)cc1)NC(=O)[C@H](CCC(=O)O)NC(=O)[C@@H]1CCCN1C(=O)[C@H](CC(N)=O)NC(=O)[C@H](CCC(=O)O)NC(=O)[C@@H](NC(=O)[C@H](C)NC(=O)CNC(=O)CNC(=O)[C@H](Cc1ccccc1)NC(=O)[C@H](C)N)C(C)C)C(=O)N[C@@H](C)C(=O)N1CCC[C@H]1C(=O)N[C@@H](CCCNC(=N)N)C(=O)N[C@@H](C)C(=O)NCC(=O)N[C@H](C(=O)N[C@@H](C)C(=O)N[C@@H](CO)C(=O)N[C@@H](CCC(N)=O)C(=O)O)[C@@H](C)O [AFGGAVENPE (pY) LAPRAGTASQ, AFGGAVENPE(pY)LAPRAGTASQ] (HELM PEPTIDE1{A.F.G.G.A.V.E.N.P.E.[O=C([C@H](Cc1ccc(OP(=O)(O)O)cc1)N[*:1])[*:2]].L.A.P.R.A.G.T.A.S.Q}$$$$V2.0)
- IC50 ([1]; Apparent Inhibition (IC50)): 1000 nM
- IC50 [1, 5]: ~1000 nM
